Patent publication US6900318B1, “1,4,5,6-tetrahydropyrimidine derivative as a vitronectin inhibitor” (Aventis Pharma Deutscland GmbH, priority 1999, dated 2005)

Test system: thyroparathyroidectomized (TPTX) rats
Test: PTH-induced hypercalcemia in the TPTX rat model of bone resorption
Assay type: in vivo
Conditions: PTH treated TPTX male Sprague Dawley rats; perorally twice at 10 mg/kg (time 0 and 3 h after start of PTH infusion); serum at 6 hours
Description: 9) Pharmacological Testing: PTH-Induced Hypercalcemia in the TPTX Rat Model of Bone Resorption
In this in vivo model a stimulation of bone resorption is induced in thyroparathyroidectomized (TPTX) rats by the infusion of parathyroid hormone (PTH). The changes in bone resorption are monitored by measuring the serum calcium concentration which is directly related to the extent of bone resorption.
Male Sprague Dawley rats (OFA-IFFA CREDO, France) weighting 150-200 g were thyroparathyroidectomized by the supplier. The rats were allowed free access to a standard commercial pelleted diet containing 7 g Ca/kg (UAR) and Eau de Volvic water. The success of thyroparathyroidectomy was tested by measuring serum calcium concentrations 8 days after operation in overnight fasted animals. Rats were considered as TPTX when the serum calcium level was <80 mg/l.
For treatment with PTH, rat PTH(1-34) (Bachem) was dissolved in 0.15 M sodium chloride solution containing 2% Cys-HCl and delivered via osmotic minipumps (ALZET 2001 D) at 200 pmol/kg/h. […]
Serum total calcium concentrations (=calcemia) were measured […] (Ciba-Corning) using a IEMS Labsystems microplate reader at 540 nm. The differences between the mean values of calcemia in the groups were analysed for variance and by Dunnett's test. The activity of the test compound was calculated as % effect according to the formula: [formula]

## CCOC(=O)[C@H](CNC(=O)c1ccc(CCC(=O)NC2=NCCCN2)cc1)NS(=O)(=O)c1cccc2ccccc12.O=C(O)/C=C/C(=O)O [compound of formula I, ethyl (2S)-2-(naphthalene-1-sulfonylamino)-3-(4-(2-(1,4,5,6-tetrahydropyrimidin-2-ylcarbamoyl)ethyl)benzoylamino)propionate hemifumarate]
  % effect on serum total calcium concentration (calcemia): −45%
